Earlier results as cited in patent US6558710B1, “Topical zinc compositions and methods of use” (priority 1999, dated 2003).
Where two headings read alike, the source gives them in different places.

Assays:
HIV = conditions: 1-1.5% zinc acetate, 2 hours, in vitro (U.S. Pat. No. 5,545,673)
[1] = solutions of 0.2-1%, applied circumorally

Q: Which dermal irritancy (20% suspension) does the source give for `[O]=[Zn]` [zinc oxide] here?
A: not overtly irritant

Q: What about the “stimulation of epidermal healing” value (in comparison to the more irritating and more water-soluble zinc salts) of the same molecule?
A: only marginally effective

Q: With `CC(=O)[O-].CC(=O)[O-].[Zn+2]` [zinc acetate] as the molecule, how does the dermal irritancy (20% aqueous) read?
A: slightly less irritant

Q: And the HIV infectivity (HIV)?
A: reduced or completely eliminated

Q: For zinc pyrithione, which dermal irritancy (20% suspension) is on record?
A: not overtly irritant

Q: Which dermal irritancy (1% aqueous) does the source give for `[Cl-].[Cl-].[Zn+2]` [zinc chloride] here?
A: severely irritant

Q: For `O=S(=O)([O-])[O-].[Zn+2]` [zinc sulfate], which “irritation and side effects” value [1] is on record?
A: severe irritation, unpleasant dryness and stimulate the emetic reflex

Q: And the dermal irritancy (1% aqueous)?
A: not overtly irritant
